# Article PMC12040169 (PLOS Biology, 2025)
# Assay: in vitro
# Conditions: human, hela cells, % viability
row,SMILES,"viability at 28.5 h, 10 µM [%]"
1,O=C(CN1CC(O)CC1c1cccc(C(F)(F)F)c1)NCc1cccs1 (stereo not shown) [CBK305253],82.6
2,Cc1nc(-c2ccc(NCC(O)c3ccco3)nc2)[nH]c(=O)c1C (stereo not shown) [CBK305254],94.6
3,Cc1cccn2c(=O)cc(CN3CCc4c(nc(C5CC5)n4C)C3)nc12 [CBK305256],99.2
4,CC(C)(C)CC(=O)NS(=O)(=O)c1cccc(-c2nnco2)c1 [CBK305258],78
5,Cc1cccc(CN2CCC(NC(=O)NCc3ccn(C)c3)CC2)c1 [CBK305259],105
6,Cc1ccn(-c2ccc(N3CCC4(CC3)OCCO4)nn2)n1 [CBK305263],91.5
7,O=C1C(n2c(=O)[nH]c3ccccc3c2=O)CCN1CC(F)(F)F (stereo not shown) [CBK305264],104
8,COCCNC(=O)CN(C)c1cnc2ccccc2n1 [CBK305265],89.2
9,Cc1cc(C)n(CC(=O)N2CCCCC2C(=O)O)n1 (stereo not shown) [CBK305266],91.3
10,O=C(CC1CCCO1)NS(=O)(=O)c1cccc(-c2nnco2)c1 (stereo not shown) [CBK305267],94.3
11,N#CC1(NC(=O)CN2CCOC(Cn3cccn3)C2)CCCCC1 (stereo not shown) [CBK305268],87.2
12,Cc1nc(CNC(=O)c2nn(-c3cccc(C(C)C)c3)cc2O)no1 [CBK305269],89
13,CC(CNc1cc(=O)n2ccccc2n1)CN1CCCC1 (stereo not shown) [CBK305270],99.1
14,COc1ccc(CN2CCCN(C(=O)c3ccc(C#N)cc3)CC2)cc1 [CBK305273],91.4
15,O=C(c1cccc(O)c1)N1CCN(Cc2cn3ccsc3n2)CC1 [CBK305275],76
16,CCOC(=O)C(CNC(=O)c1c(C)nn(C)c1C)Cc1ccccc1 (stereo not shown) [CBK305276],90
17,CCn1ncc2c1CCCC2NC1CCN(c2ccccc2F)C1=O (stereo not shown) [CBK305279],108
18,CCOc1cccc(CNC(=O)N2CCC(Cc3cnn(C)c3)C2)c1 (stereo not shown) [CBK305280],115
19,COc1ccc(CN2CCCN(C(=O)c3cccc(C#N)c3)CC2)cc1 [CBK305281],88.5

row,SMILES,"viability at 28.5 h, 10 µM [%]"
1,CCC(C)(NC(=O)c1ccn(-c2cc(C)ccc2OC)n1)C(=O)OC (stereo not shown) [CBK305282],78.7
2,CC(C)OC(=O)Cc1nc(CN2CCc3sccc3C2C)cs1 (stereo not shown) [CBK305284],85.3
3,COCCn1cc(C(=O)N2CCOC3CCCCC32)c2ccccc21 (stereo not shown) [CBK305288],113
4,COCCn1cc(C(=O)N2CCCC2c2cc(C)on2)c2ccccc21 (stereo not shown) [CBK305289],90.4
5,COCCN1CCCC(NS(=O)(=O)c2cccc(C(C)=O)c2)C1 (stereo not shown) [CBK305290],94.7
6,Cc1nc(C)n(CC2CCCN(CC(=O)NCc3ccccn3)C2)n1 (stereo not shown) [CBK305291],86.1
7,CC(=O)Nc1cccc(-n2nnnc2SCC2CCCN(C)C2)c1 (stereo not shown) [CBK305294],108
8,CCOc1cc(NC(=O)N2CCC(Cc3cnn(C)c3)C2)ccc1C (stereo not shown) [CBK305295],105
9,Cc1nc(C)c(C(=O)N2CCCC(C(=O)c3ccc(F)cc3)C2)s1 (stereo not shown) [CBK305296],104
10,Cn1cc(CCNC(=O)NC2CCN(Cc3ccccn3)CC2)cn1 [CBK305297],102
11,CCOCCCC(=O)N1CCN(Cc2nnc3n2CCCCC3)CC1 [CBK305298],90.9
12,CC(C(=O)NC1(C#N)CCCCC1)N1CCOC(c2nccs2)C1 (stereo not shown) [CBK305299],80.9
13,CSC(C)C(=O)N(C)C1CCN(c2ncnc3ccccc23)CC1 (stereo not shown) [CBK305300],83.4
14,Cc1cccc(C(C)CNC(=O)N2CCC(Cc3cnn(C)c3)C2)c1 (stereo not shown) [CBK305301],96.9
15,CCCN(CC(=O)NCc1ccco1)Cc1nnc(-c2ccco2)o1 [CBK305302],111
16,CC(C)(C)C(=O)Nc1ccc(F)c(C(=O)N2CCc3[nH]ncc3C2)c1 [CBK305303],104
17,Cc1noc(C)c1CNS(=O)(=O)N1CCOC(c2ccccc2)C1 (stereo not shown) [CBK305306],83.2
18,CCOC1CCCN(C(=O)c2cccnc2Nc2cccc(F)c2)C1 (stereo not shown) [CBK305307],86.9
